Test results taken from US10239871B2, “Compounds and methods for regulating integrins” (ADHAERE PHARMACEUTICALS, INC., priority 2012, dated 2019).

Legend:
[1] = tested on: RAW 264.7 macrophage cells; test: Wound healing assay (macrophage migration); assay type: cell-based, murine; conditions: LPS 100 ng/mL or PMA 100 nM vs unstimulated (DMSO), 48 hours
Method: Murine RAW 264.7 macrophage cells were grown in DMEM 10% FBS medium in T75 flasks to 70% confluence. The cells were detached by trypsin treatment for 10 minutes at 37° C. and evenly reseeded in 24 well plates and allowed to attain >70% confluency. A scratch was introduced horizontally across the well using 200 µL tip applying even force throughout the etching and holding the tip at approximately an 80 degree angle. The wells were subsequently washed and fresh medium containing various treatment groups was introduced. The wound was imaged using 10× objective. The cells were allowed to grow for 48 hours and the wound was reimaged at the same field after 48 hours. The average extent of wound closure was evaluated by measuring the width of the wound. The area healed was analyzed using ImageJ software and is expressed as percentage healing after 48 hours.
For FIG. 4B, RAW 264.7 cells were plated in 24-well tissue culture plates (2×10^6 cells/well) and allowed to adhere in complete media for 12 hours. […] Images of the cells in culture were obtained immediately prior to (0 hours) and after the completion of the experiment (48 hours) using an inverted phase contrast microscope attached to a video camera.
Representative data shown here are from a triplicate well experiment from one of at least two to three independent experiments. **p<0.001, ***p<0.0001.

Human macrophages = test: TNF-α release from human macrophages; assay type: cell-based; conditions: n=14
Cl66 cells = test: Orthotopic Cl66 mammary adenocarcinoma tumor growth, with or without Taxol; assay type: in vivo; conditions: BALB/c mice, vs vehicle
Method: The syngeneic murine mammary adenocarcinoma cell line Cl66 (moderately metastatic and is related to the highly metastatic 4T1 cell line) was orthotopically introduced in Balb/c animals, by injecting ˜5×10^5 Cl66 cells under the left mammary fat pad of WT BALB/c mice (approx. 8-10 weeks old). The tumor size was measured using calipers every other day until the end of the experiment (approx. 5 weeks). 7-days post implantation, the tumors in all animals became palpable, with an average size of ˜100 mm3. At that time, animals in each group were treated as described. LA1 was administered daily for the first two weeks and then every other day until the end of the experiment. Animals in Group 1 received Saline injections, as control. […] It can also enhance the efficacy of traditional chemotherapy in various cancers, including breast cancer, to produce a synergistic response to the treatment. It can also reduce the incidence and the size of metastases.

patients = conditions: cited from earlier work
[2] = tested on: MAPK signaling (pERK, pJNK) in K562 WT cells; test: Western blotting of pERK and pJNK in K562 WT cells; assay type: cell-based, human; conditions: CD11b/CD18 ligation with fibrinogen, all conditions
Method: K562 WT cells were incubated with LA1, LA2, LA15 (15 μM), or fibrinogen (200 μg) in serum-free medium for 1 hour at 37° C. Cell lysates were resolved on 4-12% NuPAGE Bis-Tris SDS-PAGE gels using MES running buffer and transferred to a polyvinylidene difluoride (PVDF) membrane (ThermoScientific) using established protocols. Membranes were incubated with a 1:1,000 dilution of the anti-phospho-protein antibodies (anti phospho-p44/42 MAPK (pERK1/2) antibody (Thr202/Tyr204, Cell Signaling) or anti-phospho-SAPK/JNK (pJNK) antibody (Thr183/Tyr185, Cell Signaling #81E11)), or with an antibody against either total ERK1/2 (p44/42 MARK (Erk1/2), Cell Signaling #137F5) or total JNK (SAPK/JNK, Cell Signaling #56G8) and developed according to the manufacturer's instructions (ThermoScientific). Proteins were quantified by densitometry using ImageJ software. […]
Second, an effect of integrin ligation, macro clustering and redistribution in the plasma membrane is the triggering of outside-in intracellular signaling in cells via various MAPKs. […] In FIGS. 6A-6B, immunoblot results from two independent experiments were quantified using ImageJ software and ratio of phosphorylated protein to total protein was determined. Histograms showing this quantitation for each set are also shown. […] In FIGS. 6C-6D, immunoblot results from two independent experiments were quantified and are also shown, as in 6A and 6B.

CD11b/CD18 = CD11b/CD18 (Homo sapiens, UniProt P11215); test: Immunofluorescence microscopy of CD11b/CD18 clustering on K562 WT cells; assay type: cell-based; design: K562 cells stably transfected with plasmid encoding wild-type integrin CD11b/CD18; expressed in transfected cells; conditions: presence of fibrinogen 50 μg/mL
Method: To visualize changes upon ligand binding, fibrinogen (50 μg/mL) was also added to the cell suspension media in a second set of incubations. The cells were fixed in suspension and incubated with mAb 184, which is specific for CD11b/CD18, followed by Alexa Fluor 488-conjugated goat antibody against mouse Ig (Sigma). Fluorescence images were recorded with a Leica DMI16000 deconvolution microscope using an HCX APO 40×/0.75 DRY objective with a DCF360FX camera and with Leica LAS-AF software. A 3-dimensional representation of CD11b/CD18 fluorescence intensity and the analysis of the number of CD11b/CD18 clusters per cell was performed using ImageJ software as described. Clustering determination was carried out by counting individual fluorescent peaks that were projected from the basal to the apical side of the cell and were at least 50% above the base line levels. The images presented are representative of at least 20 cells analyzed for each condition from at least three independent experiments.
Therefore, to investigate, a combination of confocal microscopy (to study clustering) and western blotting assays (to study intracellular signaling) using K562 WT cells were used. First, CD11b/CD18 cell-surface distribution and macro clustering was studied under various conditions using confocal microscopy. K562 WT cells in suspension were incubated with various agonists, fixed with paraformaldehyde and the surface expressed CD11b/CD18 was fluorescently stained with anti-CD11b/CD18 mAb 1B4. […] The fluorescence images shown are representative of three independent experiments. […] Also shown below each image is a 3D representation of CD11b fluorescence intensity for selected cells, analyzed in ImageJ In FIG. 5B, data shown are mean±SEM from >40 cells per condition and from >3 independent experiments for each condition. ***p<0.0001, ns=not significant.

Compound: CCCCCCCCCCCCCC(=O)O[C@@H]1[C@@H](C)[C@@]2(O)[C@@H](C=C(CO)C[C@]3(O)C(=O)C(C)=C[C@@H]23)[C@@H]2C(C)(C)[C@]12OC(C)=O [PMA, phorbol-12-myristate-13-acetate, reference compound]
- migration of macrophages into the wound area upon stimulation [1]: significantly induced the migration of macrophages

Compound: CCOCc1nc2c(N)nc3ccccc3c2n1CC(C)(C)O [R848, reference compound]
- TNF-α release, stimulus alone vs macrophages alone (Human macrophages): significantly stimulated TNF-α release

Compound: CC(=O)O[C@H]1C(=O)[C@@]2(C)[C@H]([C@H](OC(=O)c3ccccc3)[C@]3(O)C[C@H](OC(=O)[C@H](O)[C@@H](NC(=O)c4ccccc4)c4ccccc4)C(C)=C1C3(C)C)[C@]1(OC(C)=O)CO[C@@H]1C[C@@H]2O [Taxol, reference compound]
- rate of tumor growth, single agent (Cl66 cells): significant reduction in the rate of tumor growth

Compound: CC(=O)O[C@@]12CO[C@@H]1C[C@H](O)[C@@]1(C)C(=O)[C@H](O)C3=C(C)[C@@H](OC(=O)[C@H](O)[C@@H](NC(=O)OC(C)(C)C)c4ccccc4)C[C@@](O)([C@@H](OC(=O)c4ccccc4)[C@H]21)C3(C)C [docetaxel]
- incidence rate of bradycardia (patients): 1.7%

Compound: fibrinogen [reference compound]
- phosphorylated ERK (pERK) and phosphorylated JNK (pJNK) [2]: high levels of both pERK and pJNK
- CD11b/CD18 macro clustering on cell surface (CD11b/CD18): significant CD11b/CD18 macro clustering
